Source: US11306063B2, “Heterocyclic naphthoquinones derivatives for use in the treatment of cancers including Cushing disease” (Commissariat a l'Energie Atomique et aux Energies …, priority 2016, dated 2022)

Experiments:
USP2^CD = biological target: T1, USP2^CD (Homo sapiens, UniProt O75604); test: tri-Ub^K63 chains hydrolysis by USP2^CD (western blot); assay type: biochemical; settings: FIG. 1C, at the indicated concentrations
T1 construct: The purified catalytic domain of USP2 (USP2^CD, in-house purified); His; made in house; host or cells: E. coli BL21 Gold
Procedure: The degradation of purified lysine 63-linked tree-Ubiquitin chains (triUb^K63) over a 90 minutes period of time was visualized by western blot analysis. […] Enzymatic assay was performed in a HEPES buffer (50 mM pH7.4, 150 mM NaCl, 0.5 mM EDTA, 2% glycerol, 0.2 mg/ml BSA, 5 mMDTT).

[1] = test system: BT-549 triple negative breast cancer cells; test: Wounding assay, BT-549; assay type: cell-based; settings: from 1 μM concentration; mitomycine 2 μg/ml; 24 hours
Procedure: In addition the migratory capacity of two additional triple negative breast cancer cells lines: the metastatic MDA-MB231 and BT-549 showing high migratory capacity was analyzed in a classical wound assay.
BT-549, MDA-MB231 cell lines were issued from the American Type Culture Collection (ATCC). For wounding assays, cells were seeded in 24-well microplates (Culture Insert 21, ref 250210, Ibidi®). […] Cell spreading was then visualized during 24 hours by videomicroscopy (1 acquisition each 30 min). A representative picture of 3 is presented at 0 and 12 hours of drug treatment out. In Graphs, curves represents the empty surface (devoid of cells) between the two cell layers (delimited by using Image J software).

USP8 = settings: increasing concentrations; HEK293T lysate; FIG. 13D
Procedure: FIG. 13 D: Flag-USP8 constructs were transfected in HEK293T cells for 48 hours using standard protocols. After cell lysis, the whole cell lysate was incubated with HA-Ub-Vs at 1.5 μM during 12 hours. Then the mixture was separated on SDS-page gel and immunoblotted with anti Flag antibodies (to reveal USP8). The upper band corresponds to USP8 linked to HA-Ub-Vs while the lower band corresponds to free USP8. Immunoblot with anti-tubuline antibodies served as internal loading control.

T1 sequence (O75604 267-599 limits assumed): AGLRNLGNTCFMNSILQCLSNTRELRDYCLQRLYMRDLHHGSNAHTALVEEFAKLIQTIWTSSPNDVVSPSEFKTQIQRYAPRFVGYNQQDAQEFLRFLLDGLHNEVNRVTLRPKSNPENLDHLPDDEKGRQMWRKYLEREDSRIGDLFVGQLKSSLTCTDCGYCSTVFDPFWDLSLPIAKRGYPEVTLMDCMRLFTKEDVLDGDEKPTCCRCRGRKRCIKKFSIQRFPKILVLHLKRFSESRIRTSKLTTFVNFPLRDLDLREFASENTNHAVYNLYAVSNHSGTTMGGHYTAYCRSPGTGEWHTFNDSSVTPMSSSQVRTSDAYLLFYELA

Row | inhibition of tri-Ub^K63 chains hydrolysis by USP2^CD (USP2^CD) | Compound | cell migration in wounding assay, BT-549 [1] | HA-Ub-VS binding to USP8 in the whole cell lysate (USP8)
1 | full inhibition | CCCCS(=O)(=O)Cc1nc2c(o1)C(=O)c1ccccc1C2=O [PCR9301] | – | –
2 | – | CCCCS(=O)(=O)Cc1nc2c(nc1CS(=O)(=O)CCCC)C(=O)c1ccccc1C2=O [PCR6236] | prevents triple negative breast cancer cell migration | decreased HA-Ub-VS binding to USP8
